From US20240343732A1, “COMPOUNDS FOR DEGRADATION OF CYCLIN-DEPENDENT KINASE 7(CDK7)” (QURIENT CO., LTD., priority 2021, published 2024)

Key:
CDK1 = biological target: T1, CDK1 (Homo sapiens, UniProt P06493); assay: Binding assay (FRET, LanthaScreen Eu, Tracer236) for CDK1; conditions: for IC50: read-out: CDK1 IC50 (enzyme binding assay)
T1 construct: His; purchased Invitrogen PR4768C
Experimental: (§1) Inhibition activity of compound to CDK7 kinase was tested in a binding assay which was applied to the FRET (fluorescence resonance energy transfer) principle from the europium (Eu) donor fluorophore to the acceptor fluorophore on the kinase tracer. Test compounds were made to 1.125 mM of compound solution, and then this compound solution 4-fold serial diluted in 8 steps using an automated liquid handler (JANUS™, PerkinElmer). 80 nL/well of each diluted compound solution was added into the 384-well plate (Greiner, Cat #784075) first and 7.5 ul/well of working solution [5 nM of CDK7/CycH/MNAT1 (Invitrogen, Cat #PR6749B), 4 nM of Biotin anti-His Tag Antibody (Invitrogen, Cat #PV6090), and LanthaScreen® Eu-Streptavidin (Invitrogen, Cat #PV6025)] was added. After mixing the solution well, the same volume with the working solution of Tracer236 (Invitrogen, Cat #PV5592) was added into each well in the plate. The plate was incubated for 60 minutes at room temperature and then all the fluorescence were measured using Envision leader (Perkin Elmer, USA) [Laser as excitation light; […] as the first and the second emission filter]. Data was analysed using XL Fit software.
(§2) All of the synthesized compounds were screened in the above-mentioned assay procedure. To identify the inhibition activity of compounds for other CDKs including CDK1 (Invitrogen, Cat #PR4768C), CDK2 (Invitrogen, Cat #PR4448B) and CDK5 (Invitrogen, Cat #PR8543B) were tested using the same protocol under reasonable concentration of Tracer236 and kinases for each assay. The formula for the assay buffer summarized in below table.

CDK7 protein = biological target: T2, CDK7 protein (Homo sapiens, UniProt P50613); assay: Western blot assay for CDK7 protein degradation in A2780 cells; format: cell-based; conditions: 24 hours, read-out: Compound concentration that caused 50% CDK7 protein degradation in A2780 cells (DC50);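 also: A is DC50 up to 100 nM B is 100 to 1000 nM C is above 1000 nM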
T2 construct: To verify endogenous CDK7 protein degradation; endogenous in cells; host or cells: A2780 (ECACC 93112519)
Experimental: Human ovarian cancer cell line, A2780 (Cat #93112519) was obtained from ECACC. Cells were grown in RPMI-1640 media (Invitrogen, Cat #22400105) supplemented with 10% FBS (Hyclone, Cat #SH30084.03) and 1% penicillin/streptomycin (Hyclone, Cat #SV30010) and cultured at 37° C., 5% Co2 in a humidified chamber. All cell lines were routinely tested for mycoplasma.
To verify endogenous CDK7 protein degradation upon treatment of CDK7-specific degrader, the western blot assay was conducted a 24 hours' time period. 6×10^5 cells/well of A2780 cells were plated in 6-well plate. After 24 hours, the cells were treated with various concentrations of the compound corresponding range. DMSO solvent without compound served as a control and final DMSO concentration was not to exceed 0.1% of total volume. After 24 hours of incubation at 37° C., 5% Co2 incubator, cells were collected and lysed with 60 ul of lysis buffer. Collected lysates were incubated for 30 min on ice and collect supernatant through centrifugation at 12,000 rpm for 10 min at 4° C. The protein in lysates were quantified with BCA protein quantification kit (Pierce, Cat #23227) following manufacture's protocol. Cell lysates were diluted into 1 ug/ul of concentration with lysis buffer. 20 ug of protein was loaded to each well of 4˜12% Bis-Tris gel (Invitrogen, Cat #NP0336BOX) with MOPS running buffer (Invitrogen, Cat #NP0001). The proteins were transferred from gel to membrane and incubated with primary antibody as followed at 4° C. overnight; CDK7 (CST, Cat #2090S) and β-actin (Santa Cruz, Cat #sc-47778) 1:20,000. The signals were developed and acquired with ImageQuant™ LAS 4000.

CDK5 = biological target: T3, CDK5 (Homo sapiens, UniProt Q00535); assay: Binding assay (FRET, LanthaScreen Eu, Tracer236) for CDK5; conditions: for IC50: read-out: CDK5 IC50 (enzyme binding assay)
T3 construct: His; purchased Invitrogen PR8543B
Experimental: as §1, §2

CDK7/CycH/MNAT1 = biological target: T4, CDK7/CycH/MNAT1 (Homo sapiens, UniProt P50613); assay: Binding assay (FRET, LanthaScreen Eu, Tracer236) for CDK7; conditions: read-out: CDK7 IC50 (enzyme binding assay)
T4 construct: His; purchased Invitrogen PR6749B
Experimental: as §1, §2

CDK2 = biological target: T5, CDK2 (Homo sapiens, UniProt P24941); assay: Binding assay (FRET, LanthaScreen Eu, Tracer236) for CDK2; conditions: for IC50: read-out: CDK2 IC50 (enzyme binding assay)
T5 construct: His; purchased Invitrogen PR4448B
Experimental: as §1, §2

T4 sequence (P50613 whole entry): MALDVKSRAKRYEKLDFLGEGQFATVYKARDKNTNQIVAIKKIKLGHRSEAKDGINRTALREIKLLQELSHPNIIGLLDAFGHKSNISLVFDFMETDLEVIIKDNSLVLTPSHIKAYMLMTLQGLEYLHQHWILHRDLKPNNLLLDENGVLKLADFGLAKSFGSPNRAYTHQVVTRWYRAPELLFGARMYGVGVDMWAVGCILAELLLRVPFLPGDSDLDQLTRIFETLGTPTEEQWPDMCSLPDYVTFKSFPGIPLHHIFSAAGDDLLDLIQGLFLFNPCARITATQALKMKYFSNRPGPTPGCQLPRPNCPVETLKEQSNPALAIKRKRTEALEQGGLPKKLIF
T4 sequence (P51946 whole entry partner): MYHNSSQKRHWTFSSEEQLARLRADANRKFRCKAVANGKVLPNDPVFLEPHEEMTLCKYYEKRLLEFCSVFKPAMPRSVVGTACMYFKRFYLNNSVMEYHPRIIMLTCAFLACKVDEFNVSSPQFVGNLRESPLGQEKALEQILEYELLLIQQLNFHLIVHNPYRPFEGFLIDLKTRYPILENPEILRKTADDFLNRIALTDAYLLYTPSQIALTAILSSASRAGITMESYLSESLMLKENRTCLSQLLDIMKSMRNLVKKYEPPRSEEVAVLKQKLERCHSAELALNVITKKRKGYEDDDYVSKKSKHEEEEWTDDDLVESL
T4 sequence (P51948 whole entry partner): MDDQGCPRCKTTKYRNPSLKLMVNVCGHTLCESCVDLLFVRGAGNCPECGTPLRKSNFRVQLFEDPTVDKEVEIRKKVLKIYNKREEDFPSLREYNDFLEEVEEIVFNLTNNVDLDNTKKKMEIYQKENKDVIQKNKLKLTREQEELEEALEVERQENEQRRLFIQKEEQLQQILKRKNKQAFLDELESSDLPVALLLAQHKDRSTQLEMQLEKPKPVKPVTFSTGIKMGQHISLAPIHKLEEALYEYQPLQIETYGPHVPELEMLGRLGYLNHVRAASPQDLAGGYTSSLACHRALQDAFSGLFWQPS
T3 sequence (Q00535 whole entry): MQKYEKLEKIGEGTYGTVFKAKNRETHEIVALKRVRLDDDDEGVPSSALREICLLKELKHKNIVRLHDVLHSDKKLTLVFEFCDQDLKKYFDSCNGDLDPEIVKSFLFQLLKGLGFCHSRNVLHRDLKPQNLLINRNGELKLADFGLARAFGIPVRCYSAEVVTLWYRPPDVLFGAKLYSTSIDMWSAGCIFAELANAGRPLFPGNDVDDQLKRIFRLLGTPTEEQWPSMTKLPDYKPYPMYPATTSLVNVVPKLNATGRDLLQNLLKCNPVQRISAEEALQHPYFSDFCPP
T3 sequence (Q15078 99-307 partner limits assumed): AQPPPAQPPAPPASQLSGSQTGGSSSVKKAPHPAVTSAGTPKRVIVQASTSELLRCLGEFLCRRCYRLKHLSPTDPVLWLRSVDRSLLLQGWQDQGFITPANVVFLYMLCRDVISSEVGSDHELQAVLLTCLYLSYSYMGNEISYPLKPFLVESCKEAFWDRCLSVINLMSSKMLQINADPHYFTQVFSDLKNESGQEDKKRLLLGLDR
T1 sequence (P06493 whole entry): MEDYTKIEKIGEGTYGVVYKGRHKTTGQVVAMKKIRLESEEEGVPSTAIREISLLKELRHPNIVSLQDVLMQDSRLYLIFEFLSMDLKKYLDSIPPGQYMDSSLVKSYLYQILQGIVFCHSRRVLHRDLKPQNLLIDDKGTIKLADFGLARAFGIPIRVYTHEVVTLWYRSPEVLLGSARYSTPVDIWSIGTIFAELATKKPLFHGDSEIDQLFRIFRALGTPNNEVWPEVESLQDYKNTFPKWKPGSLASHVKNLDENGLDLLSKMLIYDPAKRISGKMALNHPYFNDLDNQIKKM
T1 sequence (P14635 whole entry partner): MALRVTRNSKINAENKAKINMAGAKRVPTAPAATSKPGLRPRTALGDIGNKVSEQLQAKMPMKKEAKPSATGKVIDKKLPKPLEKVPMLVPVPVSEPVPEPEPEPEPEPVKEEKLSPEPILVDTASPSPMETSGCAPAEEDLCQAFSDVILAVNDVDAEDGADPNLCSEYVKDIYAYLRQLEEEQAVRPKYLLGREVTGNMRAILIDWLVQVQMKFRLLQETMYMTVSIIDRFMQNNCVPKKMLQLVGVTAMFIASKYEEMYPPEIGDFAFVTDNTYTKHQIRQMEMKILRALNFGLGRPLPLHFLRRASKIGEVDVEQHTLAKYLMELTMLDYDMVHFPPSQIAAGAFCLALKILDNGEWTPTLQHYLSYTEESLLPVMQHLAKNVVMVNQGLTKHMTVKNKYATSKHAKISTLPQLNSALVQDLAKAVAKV
T2 sequence (P50613 whole entry): as the sequence (P50613 whole entry) above

Compound | CDK1/CDK7: Selectivity of CDK7 inhibition over CDK1 inhibition (CDK1) | IC50 (CDK1) [nM] | DC50 (CDK7 protein) [nM] | CDK5/CDK7: Selectivity of CDK7 inhibition over CDK5 inhibition (CDK5) | IC50 (CDK5) [nM] | IC50 (CDK7/CycH/MNAT1) [nM] | CDK2/CDK7: Selectivity of CDK7 inhibition over CDK2 inhibition (CDK2) | IC50 (CDK2) [nM]
Cc1ncsc1-c1ccc(CNC(=O)[C@@H]2C[C@@H](O)CN2C(=O)[C@@H](NC(=O)C2(F)CC2)C(C)(C)C)c(OCCN2CCC(N3CCC(CNc4ccc5c(-c6ccccc6CNc6nc(N[C@@H]7CCCNC7)nc7c(C(C)C)cnn67)nccc5c4)CC3)CC2)c1 [Compound 29] | B (B indicates 50 < [fold] ≤ 500) | > 1000 | – | B (B indicates 50 < [fold] ≤ 500) | > 1000 | ≤ 100 | B (B indicates 50 < [fold] ≤ 500) | > 1000
CC(C)c1cnn2c(NCc3ccccc3-c3nccc4cc(NCCOCCOCCOCCNC(=O)CNc5cccc6c5C(=O)N(C5CCC(=O)NC5=O)C6=O)ccc34)nc(O[C@@H]3CCCNC3)nc12 (some centres unmarked) [Compound 8] | A (A indicates [fold] > 500) | > 1000 | – | B (B indicates 50 < [fold] ≤ 500) | > 1000 | ≤ 100 | A (A indicates [fold] > 500) | > 1000
CC(C)c1cnn2c(NCc3ccccc3-c3nccc4cc(NC(=O)/C=C/CN(C)CCOCCNC(=O)CNc5cccc6c5C(=O)N(C5CCC(=O)NC5=O)C6=O)ccc34)nc(N3CCC(N)CC3)nc12 (centres unmarked) [Compound 1] | A (A indicates [fold] > 500) | > 1000 | – | A (A indicates [fold] > 500) | > 1000 | ≤ 100 | A (A indicates [fold] > 500) | > 1000
Cc1ncsc1-c1ccc(CNC(=O)[C@@H]2C[C@@H](O)CN2C(=O)[C@@H](NC(=O)C2(F)CC2)C(C)(C)C)c(OCCOCCOCCOCCOCCOCCNc2ccc3c(-c4ccccc4CNc4nc(O[C@@H]5CCCNC5)nc5c(C(C)C)cnn45)nccc3c2)c1 [Compound 23] | A (A indicates [fold] > 500) | > 1000 | – | A (A indicates [fold] > 500) | > 1000 | ≤ 100 | A (A indicates [fold] > 500) | > 1000
CN[C@@H](C)C(=O)N[C@H](C(=O)N1CCC[C@H]1c1nc(C(=O)c2cccc(OCCOCCOCCNc3ccc4c(-c5ccccc5CNc5nc(O[C@@H]6CCCNC6)nc6c(C(C)C)cnn56)nccc4c3)c2)cs1)C1CCCCC1 [Compound 18] | A (A indicates [fold] > 500) | > 1000 | – | A (A indicates [fold] > 500) | > 1000 | ≤ 100 | A (A indicates [fold] > 500) | > 1000
CC(C)c1cnn2c(NCc3ccccc3-c3nccc4cc(NC(=O)/C=C/CN(C)CCOCCOCCOCCNC(=O)CNc5cccc6c5C(=O)N(C5CCC(=O)NC5=O)C6=O)ccc34)nc(N3CCC(N)CC3)nc12 (centres unmarked) [Compound 3] | A (A indicates [fold] > 500) | > 1000 | – | A (A indicates [fold] > 500) | > 1000 | ≤ 100 | A (A indicates [fold] > 500) | > 1000
CC(C)c1cnn2c(NCc3ccccc3-c3nccc4cc(N)ccc34)nc(O[C@@H]3CCCN(CCOCCOCCOCCNC(=O)CNc4cccc5c4C(=O)N(C4CCC(=O)NC4=O)C5=O)C3)nc12 (some centres unmarked) [Compound 6] | A (A indicates [fold] > 500) | > 1000 | – | A (A indicates [fold] > 500) | > 1000 | ≤ 100 | A (A indicates [fold] > 500) | > 1000

Continued, values first:

CDK1/CDK7: Selectivity of CDK7 inhibition over CDK1 inhibition (CDK1) | IC50 (CDK1) [nM] | DC50 (CDK7 protein) [nM] | CDK5/CDK7: Selectivity of CDK7 inhibition over CDK5 inhibition (CDK5) | IC50 (CDK5) [nM] | IC50 (CDK7/CycH/MNAT1) [nM] | CDK2/CDK7: Selectivity of CDK7 inhibition over CDK2 inhibition (CDK2) | IC50 (CDK2) [nM] | Compound
A (A indicates [fold] > 500) | > 1000 | ≤ 100 | A (A indicates [fold] > 500) | > 1000 | ≤ 100 | A (A indicates [fold] > 500) | > 1000 | Cc1ncsc1-c1ccc(CNC(=O)[C@@H]2C[C@@H](O)CN2C(=O)[C@@H](NC(=O)C2(F)CC2)C(C)(C)C)c(OCCN2CCC(N3CCC(CNc4ccc5c(-c6ccccc6CNc6nc(O[C@@H]7CCCNC7)nc7c(C(C)C)cnn67)nccc5c4)CC3)CC2)c1 [Compound 25]
A (A indicates [fold] > 500) | > 1000 | – | B (B indicates 50 < [fold] ≤ 500) | > 1000 | 100 to 1000 | C (C indicates [fold] ≤ 50) | > 1000 | C=C(F)C(=O)Nc1ccc2c(-c3ccccc3CNc3nc(NC[C@H]4CCN(CCOCCOCCNC(=O)CNc5cccc6c5C(=O)N(C5CCC(=O)NC5=O)C6=O)C[C@@H]4O)nc4c(C(C)C)cnn34)nccc2c1 (some centres unmarked) [Compound 4]
A (A indicates [fold] > 500) | > 1000 | – | A (A indicates [fold] > 500) | > 1000 | ≤ 100 | A (A indicates [fold] > 500) | > 1000 | CC(C)c1cnn2c(NCc3ccccc3-c3nccc4cc(N)ccc34)nc(O[C@@H]3CCCN(CCOCCOCCNC(=O)CNc4cccc5c4C(=O)N(C4CCC(=O)NC4=O)C5=O)C3)nc12 (some centres unmarked) [Compound 5]
A (A indicates [fold] > 500) | > 1000 | – | A (A indicates [fold] > 500) | > 1000 | ≤ 100 | A (A indicates [fold] > 500) | > 1000 | CC(C)c1cnn2c(NCc3ccccc3-c3nccc4cc(NC(=O)/C=C/CN(C)CCOCCOCCNC(=O)CNc5cccc6c5C(=O)N(C5CCC(=O)NC5=O)C6=O)ccc34)nc(N3CCC(N)CC3)nc12 (centres unmarked) [Compound 2]
B (B indicates 50 < [fold] ≤ 500) | > 1000 | – | B (B indicates 50 < [fold] ≤ 500) | > 1000 | 100 to 1000 | B (B indicates 50 < [fold] ≤ 500) | > 1000 | CC(C)c1cnn2c(NCc3ccccc3-c3nccc4cc(N5CCN(CC6CCN(c7cc8c(cc7F)C(=O)N(C7CCC(=O)NC7=O)C8=O)CC6)CC5)ccc34)nc(O[C@@H]3CCCNC3)nc12 (some centres unmarked) [Compound 35]
B (B indicates 50 < [fold] ≤ 500) | > 1000 | – | B (B indicates 50 < [fold] ≤ 500) | > 1000 | ≤ 100 | B (B indicates 50 < [fold] ≤ 500) | > 1000 | CC(C)c1cnn2c(NCc3ccccc3-c3nccc4cc(N5CCC(CN6CCN(c7cc8c(cc7F)C(=O)N(C7CCC(=O)NC7=O)C8=O)CC6)CC5)ccc34)nc(O[C@@H]3CCCNC3)nc12 (some centres unmarked) [Compound 36]
